This note sets out measurements from ChEMBL document CHEMBL3994622, “Design and synthesis of new RAF kinase-inhibiting antiproliferative quinoline derivatives. Part 2: Diarylurea derivatives” (Eur J Med Chem, 2017).

Assay type in all cases: functional
Experiment [1] concerns OVCAR-5. In words: Growth inhibition of human OVCAR5 cells assessed as cell growth at 10 uM incubated for 48 hrs by sulforhodamine B assay relative to control. Particulars: OVCAR-5, 48 h, read-out: Activity. (In general: The SRB assay estimates cell density from bound dye.)
Experiment [2] relates to HCT-15. The experiment is described as follows: Growth inhibition of human HCT15 cells assessed as cell growth at 0.01 uM incubated for 48 hrs by sulforhodamine B assay relative to control. The settings on record: HCT-15, 48 h, read-out: Activity.
Experiment [3] relates to SK-OV-3. In words: Growth inhibition of human SKOV3 cells assessed as cell growth at 10 uM incubated for 48 hrs by sulforhodamine B assay relative to control. Particulars: SK-OV-3, 48 h, read-out: Activity.
The test system of experiment [4] is SK-MEL-2. The experiment is described as follows: Growth inhibition of human SK-MEL-2 cells assessed as cell growth at 1 uM incubated for 48 hrs by sulforhodamine B assay relative to control. The settings on record: SK-MEL-2, 48 h, read-out: Activity.
In experiment [5] the test system is SK-MEL-2. The experiment is described as follows: Growth inhibition of human SK-MEL-2 cells assessed as cell growth at 0.1 uM incubated for 48 hrs by sulforhodamine B assay relative to control. Particulars: SK-MEL-2, 48 h, read-out: Activity.
The test system of experiment [6] is RXF 393. In words: Growth inhibition of human RXF393 cells assessed as cell growth at 10 uM incubated for 48 hrs by sulforhodamine B assay relative to control. The settings on record: RXF 393, 48 h, read-out: Activity.
The test system of experiment [7] is Malme-3M. In words: Growth inhibition of human MALME-3M cells assessed as cell growth at 0.01 uM incubated for 48 hrs by sulforhodamine B assay relative to control. The settings on record: read-out: Activity.
Experiment [8] has as its system HOP-62. The experiment is described as follows: Growth inhibition of human HOP62 cells assessed as cell growth at 1 uM incubated for 48 hrs by sulforhodamine B assay relative to control. The settings on record: HOP-62, 48 h, read-out: Activity.
The subject of experiment [9] is HCT-15. The experiment is described as follows: Growth inhibition of human HCT15 cells assessed as cell growth at 0.1 uM incubated for 48 hrs by sulforhodamine B assay relative to control. Particulars: HCT-15, 48 h, read-out: Activity.
In experiment [10] the test system is U-251. In words: Growth inhibition of human U251 cells assessed as cell growth at 0.01 uM incubated for 48 hrs by sulforhodamine B assay relative to control. Particulars: U-251, 48 h, read-out: Activity.
Experiment [11] relates to NCI-H322M. The experiment is described as follows: Growth inhibition of human NCI-H322M cells assessed as cell growth at 1 uM incubated for 48 hrs by sulforhodamine B assay relative to control. The settings on record: read-out: Activity.
For experiment [12], the system named is SF-295. In words: Growth inhibition of human SF295 cells assessed as cell growth at 0.1 uM incubated for 48 hrs by sulforhodamine B assay relative to control. The settings on record: SF-295, 48 h, read-out: Activity.
Experiment [13] relates to RPMI-8226. The experiment is described as follows: Growth inhibition of human RPMI8226 cells assessed as cell growth at 1 uM incubated for 48 hrs by sulforhodamine B assay relative to control. Particulars: RPMI-8226, 48 h, read-out: Activity.
Experiment [14] has as its system COLO 205. The experiment is described as follows: Growth inhibition of human COLO205 cells assessed as cell growth at 10 uM incubated for 48 hrs by sulforhodamine B assay relative to control. Particulars: COLO 205, 48 h, read-out: Activity.
Experiment [15] concerns BT-549. The experiment is described as follows: Growth inhibition of human BT549 cells assessed as cell growth at 0.1 uM incubated for 48 hrs by sulforhodamine B assay relative to control. Particulars: BT-549, 48 h, read-out: Activity.
Experiment [16] has as its system CAKI-1. In words: Growth inhibition of human Caki1 cells assessed as cell growth at 0.1 uM incubated for 48 hrs by sulforhodamine B assay relative to control. Particulars: CAKI-1, 48 h, read-out: Activity.
Experiment [17] deals with SW-620. The experiment is described as follows: Growth inhibition of human SW620 cells assessed as cell growth at 1 uM incubated for 48 hrs by sulforhodamine B assay relative to control. The settings on record: SW-620, 48 h, read-out: Activity.
The test system of experiment [18] is SF-295. In words: Growth inhibition of human SF295 cells assessed as cell growth at 1 uM incubated for 48 hrs by sulforhodamine B assay relative to control. The settings on record: SF-295, 48 h, read-out: Activity.
In experiment [19] the test system is Hs-578T. In words: Growth inhibition of human Hs 578T cells assessed as cell growth at 10 uM incubated for 48 hrs by sulforhodamine B assay relative to control. The settings on record: read-out: Activity.
In experiment [20] the test system is SN12C. In words: Growth inhibition of human SN12C cells assessed as cell growth at 10 uM incubated for 48 hrs by sulforhodamine B assay relative to control. Particulars: read-out: Activity.
Experiment [21] concerns HL-60(TB). The experiment is described as follows: Growth inhibition of human HL-60(TB) cells assessed as cell growth at 0.01 uM incubated for 48 hrs by sulforhodamine B assay relative to control. Particulars: HL-60, 48 h, read-out: Activity.
For experiment [22], the system named is UACC-257. In words: Growth inhibition of human UACC257 cells assessed as cell growth at 0.003 uM incubated for 48 hrs by sulforhodamine B assay relative to control. The settings on record: UACC-257, 48 h, read-out: Activity.
For experiment [23], the system named is OVCAR-8. In words: Growth inhibition of human OVCAR8 cells assessed as cell growth at 30 uM incubated for 48 hrs by sulforhodamine B assay relative to control. Particulars: OVCAR-8, 48 h, read-out: Activity.
Experiment [24] concerns UO-31. In words: Growth inhibition of human UO31 cells assessed as cell growth at 0.003 uM incubated for 48 hrs by sulforhodamine B assay relative to control. Particulars: UO-31, 48 h, read-out: Activity.
In experiment [25] the test system is HCC 2998. The experiment is described as follows: Growth inhibition of human HCC2998 cells assessed as cell growth at 3 uM incubated for 48 hrs by sulforhodamine B assay relative to control. The settings on record: HCC 2998, 48 h, read-out: Activity.
Experiment [26] deals with OVCAR-5. In words: Growth inhibition of human OVCAR5 cells assessed as cell growth at 0.3 uM incubated for 48 hrs by sulforhodamine B assay relative to control. Particulars: OVCAR-5, 48 h, read-out: Activity.
The subject of experiment [27] is NCI-H226. In words: Growth inhibition of human NCI-H226 cells assessed as cell growth at 0.003 uM incubated for 48 hrs by sulforhodamine B assay relative to control. Particulars: NCI-H226, 48 h, read-out: Activity.
In experiment [28] the test system is SK-MEL-5. In words: Growth inhibition of human SK-MEL-5 cells assessed as cell growth at 0.3 uM incubated for 48 hrs by sulforhodamine B assay relative to control. The settings on record: SK-MEL-5, 48 h, read-out: Activity.
For experiment [29], the system named is HT-29. The experiment is described as follows: Growth inhibition of human HT-29 cells assessed as cell growth at 0.3 uM incubated for 48 hrs by sulforhodamine B assay relative to control. Particulars: HT-29, 48 h, read-out: Activity.
The subject of experiment [30] is NCI-H23. In words: Growth inhibition of human NCI-H23 cells assessed as cell growth at 0.03 uM incubated for 48 hrs by sulforhodamine B assay relative to control. The settings on record: NCI-H23, 48 h, read-out: Activity.
For experiment [31], the system named is ACHN. The experiment is described as follows: Growth inhibition of human ACHN cells assessed as cell growth at 0.03 uM incubated for 48 hrs by sulforhodamine B assay relative to control. Particulars: read-out: Activity.
For experiment [32], the system named is BT-549. The experiment is described as follows: Growth inhibition of human BT549 cells assessed as cell growth at 3 uM incubated for 48 hrs by sulforhodamine B assay relative to control. Particulars: BT-549, 48 h, read-out: Activity.
The test system of experiment [33] is M14. In words: Growth inhibition of human M14 cells assessed as cell growth at 0.3 uM incubated for 48 hrs by sulforhodamine B assay relative to control. The settings on record: M14, 48 h, read-out: Activity.
For experiment [34], the system named is OVCAR-4. In words: Growth inhibition of human OVCAR4 cells assessed as cell growth at 30 uM incubated for 48 hrs by sulforhodamine B assay relative to control. Particulars: OVCAR-4, 48 h, read-out: Activity.

For `COc1cc2cc(Oc3ccc(NC(=O)Nc4ccc(Cl)c(Cl)c4)cc3)c(C)nc2cc1OC`, the growth at 10 µM in experiment [1] is 50%; in experiment [3] it was 41%; in experiment [6] it was 19%; in experiment [14], -25%; in [19], -2%; in experiment [20], 19%. In addition, the growth at 0.01 µM is 100% in [2], 102% in experiment [7], 94% in experiment [10] and 104% in experiment [21]. The growth at 1 µM in experiment [4] is 121%; in experiment [8], 101%; in [11], 102%; in experiment [13] it was 69%; in experiment [17], 107%; in [18], 80%. Further, the growth at 0.1 µM was determined as 116% in experiment [5]; 102% in experiment [9]; 87% in experiment [12]; 88% in experiment [15]; 87% in [16].

Turning to `COc1cc2cc(Oc3ccc(NC(=O)Nc4ccc(Cl)c(C(F)(F)F)c4)cc3)c(C)nc2cc1OC`, the growth at 0.003 µM in [22] turned out to be 94%; in experiment [24] it was 87%; in experiment [27], 96%. Further, the growth at 30 µM in experiment [23] was -32%; in experiment [34] it was -62%. For the same compound, the growth at 3 µM in experiment [25] came to 29%; in [32], 12%. In addition, the growth at 0.3 µM in [26] is 113%; in experiment [28] it was 94%; in experiment [29], 105%; in [33] it was 94%. In addition, the results for the growth at 0.03 µM in experiment [30] and in experiment [31] were 93% and 97%, respectively.

Take `COc1cc2cc(Oc3ccc(NC(=O)Nc4cc(C(F)(F)F)cc(C(F)(F)F)c4)cc3)c(C)nc2cc1OC`: the growth at 10 µM was -58% in [1]; -75% in experiment [3]; -44% in [6]; -74% in experiment [14]; -19% in experiment [19]; -75% in experiment [20]. The growth at 0.01 µM is 93% in [2], 87% in experiment [7], 100% in experiment [10] and 89% in [21]. The growth at 1 µM in experiment [4] was found to be 85%; in experiment [8], 70%; in [11] it was 59%; in experiment [13] it was 23%; in [17], 81%; in [18], 31%. In addition, the growth at 0.1 µM stood at 94% in [5]; 94% in experiment [9]; 92% in [12]; 94% in [15]; 90% in experiment [16].

Turning to `Cc1nc2cc(O)c(O)cc2cc1Oc1ccc(NC(=O)Nc2ccc(Cl)c(Cl)c2)cc1`, the growth at 0.003 µM in experiment [22] was 85%; in experiment [24], 91%; in experiment [27], 101%. In addition, the growth at 30 µM in experiment [23] amounted to 1%; in experiment [34], 9%. The growth at 3 µM was determined as 96% in experiment [25] and 78% in [32]. Moreover, the growth at 0.3 µM was 106% in experiment [26], 97% in [28], 103% in experiment [29] and 93% in experiment [33]. Moreover, the growth at 0.03 µM in experiment [30] was 92%; in experiment [31], 107%.
